How the values were obtained:
Format in all cases: cell-based
E. coli = assay: Microcolony growth imaging of E. coli on Kirby-Bauer type growth medium; settings: 2 μg/ml, two-hour incubation, E. coli microcolonies, FIG. 2D
Method: (§1) FIGS. 2A-2D, 3A-3D, and 4A-4D show digital images of various microorganisms exposed to different growth-altering agents. Here again, the images contained in panels “A” and “B” of each FIGURE were taken immediately after inoculation, and the images contained in panels “C” and “D” of each FIGURE were taken after about two hours of incubation. None of the images in FIGS. 2A-2D, 3A-3D, and 4A-4D are enhanced by digital processing. The images contained in panels “B” and “D” of each FIGURES show regions of the growth medium that have been exposed to a growth-altering agent. The images contained in panels “A” and “C” of each FIGURE have not been exposed to a growth-altering agent and can be used as control reference areas.
The images contained in FIGS. 2A and 2B show regions of a Kirby-Bauer type growth medium immediately after inoculation with E. coli. The images contained in FIGS. 2C and 2D show the same regions after a two-hour incubation period. […] If it is desired to find the threshold of microbial sensitivity, such as is done to determine the minimum inhibitory concentration (MIC), then a series of separate regions each containing a certain concentration of the growth-altering agent may be used and the relative growth in each separate region evaluated. […]

E. faecium = assay: Microcolony growth imaging of E. faecium on Kirby-Bauer type growth medium; settings: 2 μg/ml, two-hour incubation, E. faecium microcolonies, FIG. 4D
Method: as §1
The images contained in FIGS. 4A and 4B show regions of a Kirby-Bauer type growth medium immediately after inoculation with E. faecium. The images contained in FIGS. 4C and 4D show the same regions after a two-hour incubation period.

E. faecalis = assay: Microcolony growth imaging of E. faecalis on Kirby-Bauer type growth medium; settings: 2 μg/ml, two-hour incubation, E. faecalis microcolonies, FIG. 3D
Method: as §1
The images contained in FIGS. 3A and 3B show regions of a Kirby-Bauer type growth medium immediately after inoculation with E. faecalis. The images contained in FIGS. 3C and 3D show the same regions after a two-hour incubation period.

| Compound | microcolony perimeter/area ratio characteristic (E. coli) | microcolony growth (E. faecium) | microcolony growth (E. faecalis) |
| --- | --- | --- | --- |
| CO/N=C(\C(=O)N[C@@H]1C(=O)N2C(C(=O)O)=C(COC(C)=O)CS[C@H]12)c1csc(N)n1 [cefotaxime] | increased perimeter/area ratio characteristic |  |  |
| CN[C@H](CC(C)C)C(=O)N[C@H]1C(=O)N[C@@H](CC(N)=O)C(=O)N[C@H]2C(=O)N[C@H]3C(=O)N[C@H](C(=O)N[C@H](C(=O)O)c4cc(O)cc(O)c4-c4cc3ccc4O)[C@H](O)c3ccc(c(Cl)c3)Oc3cc2cc(c3O[C@@H]2O[C@H](CO)[C@@H](O)[C@H](O)[C@H]2O[C@H]2C[C@](C)(N)[C@H](O)[C@H](C)O2)Oc2ccc(cc2Cl)[C@H]1O [vancomycin] |  | show detectable growth | do not appear to exhibit any growth |

Reference: US6472166B1, “Method for determining the effects of a growth-altering agent on a microbial colony” (Wardlaw Partners LP, priority 2000, dated 2002)
